Values quoted from earlier work, collected in US8877792B2, “Compositions for increasing solubility of azole drug compounds that are poorly soluble in water” (Dow Pharmaceutical Sciences, Inc., priority 2008, dated 2014).

Conditions: background statement, cited from earlier work

SMILES: Cc1ncc([N+](=O)[O-])n1CCO [Metronidazole, metronidazole]
- aqueous solubility of metronidazole in water (room temperature): about 0.87 % w/w
- limit of metronidazole concentration for physically stable solutions in water (solutions that can withstand cold temperatures encountered during shipping): about 0.7 % w/w
